Results as given in ChEMBL document CHEMBL5346909, “Korupensamine A, but not its atropisomer, korupensamine B, inhibits SARS-CoV-2 in vitro by targeting its main protease (Mpro)” (Eur J Med Chem, 2023).

Columns and labels:
[1] = molecular target: T1, Replicase polyprotein 1ab (Severe acute respiratory syndrome coronavirus 2, UniProt P0DTD1); assay: Inhibition of SARS CoV-2 main protease
[2] = molecular target: T1, Replicase polyprotein 1ab; assay: Binding affinity to SARS CoV-2 main protease assessed as inhibition constant
SARS-CoV-2 = assay: Antiviral activity against SARS-CoV-2 infected in African green monkey Vero cells assessed as inhibition of viral replication measured after 24 hrs post infection by qRT-PCR analysis; assay type: functional, organism-based; conditions: Severe acute respiratory syndrome coronavirus 2, Vero
[3] = Cytotoxicity against African green monkey Vero cells incubated for 3 days by automatic cell counting method; assay type: toxicity, cell-based; conditions: chlorocebus sabaeus, time 3 day

SMILES | IC50 [1] | Ki [2] | EC50 (SARS-CoV-2) | CC50 at 72 h [3]
COc1cc(C)cc2c(-c3c(O)cc(O)c4c3C[C@@H](C)N[C@@H]4C)ccc(O)c12 (stereo in doubt; 1a) [KORUPENSAMINE A] | 2.52 µM | 1.42 µM | 4.23 µM | 35.1 µM
COc1cc(C)cc2c(-c3c(O)cc(O)c4c3C[C@@H](C)N[C@@H]4C)ccc(O)c12 (stereo in doubt; 1b) [KORUPENSAMINE A] | 71.9 µM |  |  | 
